The results in this text go back to article PMC10182977 (Nature Communications, 2023).

Usually stoichiometry N stands for the number of molecules, sites or subunits per partner or assembly.

The target in one data set is T1, xlCHPT1 (Xenopus laevis, UniProt Q4KLV1).
T1 construct: gene chpt1; full-length, codon-optimized; C-terminal His6-tag cleaved with TEV protease; Hi Five (Trichoplusia ni) baculovirus; detergent-purified homodimer; residues 20-383 modelled
T1 sequence (Q4KLV1 1-402): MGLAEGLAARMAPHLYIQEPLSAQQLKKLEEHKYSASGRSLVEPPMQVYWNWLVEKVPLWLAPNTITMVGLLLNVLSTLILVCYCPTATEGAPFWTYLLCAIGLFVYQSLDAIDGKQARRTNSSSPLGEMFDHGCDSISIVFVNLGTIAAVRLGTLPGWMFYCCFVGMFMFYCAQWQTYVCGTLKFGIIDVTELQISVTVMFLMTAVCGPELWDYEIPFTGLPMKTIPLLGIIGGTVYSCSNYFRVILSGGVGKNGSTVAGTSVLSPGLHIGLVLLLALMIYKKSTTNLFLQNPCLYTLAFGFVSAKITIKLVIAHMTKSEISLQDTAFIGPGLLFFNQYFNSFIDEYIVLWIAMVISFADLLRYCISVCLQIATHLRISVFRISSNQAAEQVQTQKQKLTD
In words: cryo-EM structure, ~[…] Å. Type of data set: binding. The conditions noted are these: Mg2+ complex; 10 mM CDP and 0.5 mM DAG added; CDP-choline active site.

Data set [1] concerns the molecule itself. The data set is described as follows: cryo-EM structure; single-particle cryo-EM of purified xlCHPT1 in 20 mM HEPES, 150 mM NaCl, 2 mM BME, 4 mM MgCl2, 0.02% GDN; with 10 mM CDP-choline, or with 10 mM CDP and 0.5 mM DAG; refined with C2 symmetry.

Consider `Nc1ccn([C@@H]2O[C@H](COP(=O)(O)OP(=O)(O)O)[C@@H](O)[C@H]2O)c(=O)n1` [CDP], for which the “cryo-EM structure, ~3.2 Å” value on xlCHPT1 was “xlCHPT1 in complex with CDP have been deposited in the PDB under the accession code 8ERO”.

B1: Xenopus laevis cholinephosphotransferase-1 (enzyme, UniProt Q4KLV1 1-402, looked up)
chain: T1 sequence (Q4KLV1 1-402)
notes: cholinephosphotransferase-1 (CHPT1) of Xenopus laevis, full length, codon-optimized gene; residues 20-383 are resolved in the cryo-EM models, the first 19 and the last 18 residues are not resolved; The His6 tag was cleaved with TEV protease; residues of the cleavage site may be left at the C-terminus; also called xlCHPT1; CHPT1; source: Hi Five (Trichoplusia ni) cells, baculovirus, purified (LMNG …)
As to B1, the “stoichiometry N” value in data set [1] was determined as 2.
